Assay results: US10174036B2, “Substituted pyrazoles as JAK inhibitors” (WUXI FORTUNE PHARMACEUTICAL CO., LTD, priority 2015, dated 2019)

How the values were obtained:
Type in all cases: biochemical
JAK1 = target: T1, JAK1 (Homo sapiens, UniProt P23458); assay: Test for in vitro activity of JAK1 kinase (LANCE Ultra ULight-JAK-1 peptide); conditions: selectivity ratio JAK1 versus JAK2; class symbol
T1 construct: purchased Life technology
Method: (§1) Test for In Vitro Activity of Jak1, Jak2, and Jak3 Kinase
(§2) Recombinant human […] of JAK1, JAK2 and JAK3 were purchased from Life technology. LANCE Ultra ULight™-JAK-1 (Tyr1023) peptide and LANCE Eu-W1024 Anti-phosphotyrosine (PT66) were purchased from PerkinElmer. Multimode ELISA, Envison(PerkinElmer) reader was used.
The reaction was carried out at room temperature for 90 min and the reaction system was 10 ul.
(§3) Determination for Reaction
(§4) 10 ul detection reagent was added to reaction plate, wherein the final concentration of LANCE Eu-W1024 Anti-phosphotyrosine (PT66) was 2 nM, the final concentration of EDTA was […], incubated at room temperature for 60 min, with Envison reader.
(§5) The reading was converted to inhibition ratio (%) by the following formula: the inhibition ratio (%)=([…])/(Max−Min)×100%.

JAK2 = target: T2, JAK2 (Homo sapiens, UniProt O60674); assay: Test for in vitro activity of JAK2 kinase (LANCE Ultra ULight-JAK-1 peptide); conditions: recombinant human JAK2, 12 uM ATP, 60 min; class symbol
T2 construct: purchased Life technology
T2 sequence (O60674 whole entry): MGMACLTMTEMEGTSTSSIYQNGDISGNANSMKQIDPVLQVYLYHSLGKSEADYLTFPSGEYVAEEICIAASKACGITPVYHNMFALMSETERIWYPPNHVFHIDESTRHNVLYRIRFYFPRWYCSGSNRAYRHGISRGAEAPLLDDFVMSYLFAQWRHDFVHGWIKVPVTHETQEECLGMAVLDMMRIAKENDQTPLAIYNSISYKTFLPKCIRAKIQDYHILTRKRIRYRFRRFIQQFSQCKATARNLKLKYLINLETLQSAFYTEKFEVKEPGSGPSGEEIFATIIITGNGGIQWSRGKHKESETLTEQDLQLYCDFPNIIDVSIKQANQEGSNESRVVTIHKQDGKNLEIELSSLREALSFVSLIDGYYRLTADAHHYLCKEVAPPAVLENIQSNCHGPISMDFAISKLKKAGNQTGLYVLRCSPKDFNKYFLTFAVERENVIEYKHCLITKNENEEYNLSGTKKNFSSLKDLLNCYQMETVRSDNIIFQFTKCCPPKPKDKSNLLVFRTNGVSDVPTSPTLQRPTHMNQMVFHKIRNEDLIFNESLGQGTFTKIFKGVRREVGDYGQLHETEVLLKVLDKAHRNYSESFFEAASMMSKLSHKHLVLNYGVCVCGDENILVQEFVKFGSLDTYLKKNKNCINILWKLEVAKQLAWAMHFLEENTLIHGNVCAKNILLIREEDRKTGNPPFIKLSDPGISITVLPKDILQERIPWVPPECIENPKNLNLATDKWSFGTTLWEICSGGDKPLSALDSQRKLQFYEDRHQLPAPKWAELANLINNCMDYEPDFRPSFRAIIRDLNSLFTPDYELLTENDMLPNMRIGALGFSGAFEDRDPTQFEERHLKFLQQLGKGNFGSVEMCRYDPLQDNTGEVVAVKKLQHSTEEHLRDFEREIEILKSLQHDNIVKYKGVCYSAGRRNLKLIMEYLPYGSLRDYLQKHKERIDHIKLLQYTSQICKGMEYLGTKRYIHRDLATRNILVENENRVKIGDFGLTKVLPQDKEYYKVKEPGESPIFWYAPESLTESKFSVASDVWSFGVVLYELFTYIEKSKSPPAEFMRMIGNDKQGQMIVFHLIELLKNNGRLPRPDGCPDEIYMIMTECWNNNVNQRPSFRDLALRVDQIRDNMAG
Method: as §1, §2
The reaction was carried out at room temperature for 60 min and the reaction system was 10 ul.
as §3, §4, §5

JAK3 = target: T3, JAK3 (Homo sapiens, UniProt P52333); assay: Test for in vitro activity of JAK3 kinase (LANCE Ultra ULight-JAK-1 peptide); conditions: selectivity ratio JAK3 versus JAK2; class symbol
T3 construct: purchased Life technology
T3 sequence (P52333 1-1124): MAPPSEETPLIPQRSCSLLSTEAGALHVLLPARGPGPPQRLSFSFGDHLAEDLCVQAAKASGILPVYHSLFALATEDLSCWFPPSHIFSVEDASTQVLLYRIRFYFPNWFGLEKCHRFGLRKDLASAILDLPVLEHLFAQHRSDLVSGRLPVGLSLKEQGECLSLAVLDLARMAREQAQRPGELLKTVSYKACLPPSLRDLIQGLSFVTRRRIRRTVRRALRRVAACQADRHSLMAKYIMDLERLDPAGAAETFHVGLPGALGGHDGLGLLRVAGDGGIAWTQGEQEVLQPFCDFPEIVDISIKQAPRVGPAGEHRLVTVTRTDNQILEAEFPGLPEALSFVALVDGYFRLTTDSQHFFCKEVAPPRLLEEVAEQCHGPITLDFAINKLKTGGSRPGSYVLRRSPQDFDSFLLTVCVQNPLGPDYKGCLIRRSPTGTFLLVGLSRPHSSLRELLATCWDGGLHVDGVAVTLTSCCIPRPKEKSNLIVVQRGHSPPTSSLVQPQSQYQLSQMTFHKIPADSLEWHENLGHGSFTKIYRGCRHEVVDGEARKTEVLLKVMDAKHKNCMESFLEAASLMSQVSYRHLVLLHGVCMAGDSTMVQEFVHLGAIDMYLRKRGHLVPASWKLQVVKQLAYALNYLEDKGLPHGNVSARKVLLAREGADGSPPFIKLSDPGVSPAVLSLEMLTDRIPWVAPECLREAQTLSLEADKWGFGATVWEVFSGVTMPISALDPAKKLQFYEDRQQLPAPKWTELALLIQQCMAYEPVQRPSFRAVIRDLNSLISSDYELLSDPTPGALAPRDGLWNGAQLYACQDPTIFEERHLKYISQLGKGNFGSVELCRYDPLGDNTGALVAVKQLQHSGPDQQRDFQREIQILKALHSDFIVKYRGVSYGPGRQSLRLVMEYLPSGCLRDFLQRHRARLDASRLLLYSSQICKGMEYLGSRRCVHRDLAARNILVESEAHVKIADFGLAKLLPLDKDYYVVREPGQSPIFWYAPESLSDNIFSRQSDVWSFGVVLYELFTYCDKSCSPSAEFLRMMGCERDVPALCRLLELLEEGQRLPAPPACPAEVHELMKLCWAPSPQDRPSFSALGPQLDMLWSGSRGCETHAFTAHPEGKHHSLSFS
Method: as §1, §2
0.05 nM of JAK3 Protein kinase, 50 nM of LANCE Ultra ULight™-JAK-1(Tyr1023) peptide, 4 uM of ATP, 50 mM of HEPES (pH 7.5), 10 mM of MgCl2, 1 mM of EGTA, 2 mM of DTT, 0.01% BRIJ-35. […] The reaction was carried out at room temperature for 90 min and the reaction system was 10 ul.
as §3, §4, §5

T1 sequence (P23458 whole entry): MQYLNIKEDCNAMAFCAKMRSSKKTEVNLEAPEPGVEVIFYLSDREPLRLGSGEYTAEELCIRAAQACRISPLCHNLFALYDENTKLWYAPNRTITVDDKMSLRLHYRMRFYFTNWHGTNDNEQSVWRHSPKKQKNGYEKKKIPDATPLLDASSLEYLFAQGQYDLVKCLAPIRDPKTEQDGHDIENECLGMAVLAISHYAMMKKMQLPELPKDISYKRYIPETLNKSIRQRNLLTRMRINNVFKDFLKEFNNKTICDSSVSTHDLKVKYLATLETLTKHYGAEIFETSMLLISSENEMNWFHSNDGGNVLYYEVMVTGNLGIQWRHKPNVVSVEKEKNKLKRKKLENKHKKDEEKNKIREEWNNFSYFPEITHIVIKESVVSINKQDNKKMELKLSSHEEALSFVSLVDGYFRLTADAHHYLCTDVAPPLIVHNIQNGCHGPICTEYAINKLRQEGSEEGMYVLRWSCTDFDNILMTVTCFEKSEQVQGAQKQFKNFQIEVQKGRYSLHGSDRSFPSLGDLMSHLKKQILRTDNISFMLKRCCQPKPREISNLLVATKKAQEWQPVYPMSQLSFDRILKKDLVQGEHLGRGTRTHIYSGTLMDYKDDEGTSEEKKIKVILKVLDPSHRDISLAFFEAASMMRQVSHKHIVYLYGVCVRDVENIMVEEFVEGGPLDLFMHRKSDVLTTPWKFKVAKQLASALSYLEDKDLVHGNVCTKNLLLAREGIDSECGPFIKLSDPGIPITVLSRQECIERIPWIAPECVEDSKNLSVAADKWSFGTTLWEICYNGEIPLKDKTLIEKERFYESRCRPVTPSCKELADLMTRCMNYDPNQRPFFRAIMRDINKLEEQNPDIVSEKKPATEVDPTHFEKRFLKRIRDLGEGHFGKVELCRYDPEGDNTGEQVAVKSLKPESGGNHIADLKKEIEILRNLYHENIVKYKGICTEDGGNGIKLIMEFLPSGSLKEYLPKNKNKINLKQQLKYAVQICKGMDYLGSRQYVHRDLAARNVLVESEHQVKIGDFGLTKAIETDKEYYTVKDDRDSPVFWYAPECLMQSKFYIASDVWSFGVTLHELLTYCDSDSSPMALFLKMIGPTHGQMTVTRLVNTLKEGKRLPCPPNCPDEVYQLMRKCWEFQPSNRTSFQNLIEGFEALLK

Question: For `CS(=O)(=O)N1CC(CC#N)(n2cc(-c3nccc4nc(NC(=O)C5CC5)nn34)cn2)C1` [WX12, N-[5-[1-[3-(cyanomethyl)-1-methanesulfonyl-azetidine-3-]pyrazole-4-]-[1,2,4]triazoloe[1,5-c]pyrimidine2-] cyclopropane carboxamide], which “JAK1/JAK2 (times)” value (JAK1) is on record?
Answer: F2 (5 < F2 ≤ 10)

Question: And the IC50 (JAK2)?
Answer: 10 to 100 nM

Question: And the “JAK3/JAK2 (times)” value (JAK3)?
Answer: F3 (10 < F3 ≤ 25)

Question: Which results are given for `N#CCC1(n2cc(-c3nccc4nc(NC(=O)C5CC5)nn34)cn2)CN(S(=O)(=O)C2CC2)C1` [WX03, N-[5-[1-[3-(cyanomethyl)-1-cyclopropylsulfonyl-azetidine-3-yl]pyrazole-4-yl]-[1,2,4]triazolo[1,5-c]pyrimidin-2-yl]cyclopropanecarboxamide]?
Answer: JAK1/JAK2 (times) (JAK1): F2 (5 < F2 ≤ 10); IC50 (JAK2): 10 to 100 nM; JAK3/JAK2 (times) (JAK3): F3 (10 < F3 ≤ 25)

Question: How did the “JAK1/JAK2 (times)” value (JAK1) turn out when `N#CCC1(n2cc(-c3cccc4nc(NC(=O)C5CC5)nn34)cn2)CNC1` [WX00, N-[5-[1-[3-(cyanomethyl)azetidine-3-yl]pyrazole-4-yl]-[1,2,4]triazolo[1,5-a]pyridin-2-yl] cyclopropane carboxamide] was run?
Answer: F1 (1 ≤ F1 ≤ 5)

Question: What about the IC50 (JAK2) of the same molecule?
Answer: 10 to 100 nM

Question: And the “JAK3/JAK2 (times)” value (JAK3)?
Answer: F4 (25 < F4 ≤ 100)

Question: Which results are given for `CCS(=O)(=O)N1CC(CC#N)(n2cc(-c3nccn4nc(NC(=O)C5CC5)nc34)cn2)C1` [WX31, N-[8-[1-[3-(cyanomethyl)-1-ethylsulfonylazetidin-3-yl]pyrazole-4-yl)-[1,2,4]triazolo[1,5-a]pyrazine-2-yl] cyclopropanecarboxamide]?
Answer: JAK1/JAK2 (times) (JAK1): F2 (5 < F2 ≤ 10); IC50 (JAK2): 100 to 1000 nM; JAK3/JAK2 (times) (JAK3): F3 (10 < F3 ≤ 25)
